Measurements from patent US7700601B2, “Substituted indazoles of formula 1.0 that are kinase inhibitors” (Schering Corporation, priority 2006, dated 2010).
pIC50: −log10 of the molar value. Where “and” joins values, the source holds several entries; their conditions need not be identical. Identical values can stand only once.

molecular target: T1, Akt1 (Homo sapiens, UniProt P31749); assay: Akt1 kinase assay (33P phosphorylation of biotinylated Gsk3-derived peptide, streptavidin Flash plates); format: biochemical; conditions: Table 2; active recombinant Akt1
T1 construct: (His)6 (N); made in house; host or cells: Sf9 insect cells (baculovirus, pBlueBacHis2B)
Excerpt: The assay described below measures the phosphorylation of a biotinylated peptide by active recombinant Akt1 and other kinase isoforms. The biotinylated peptide contains a consensus sequence derived from Akt substrate Gsk3 (Glycogen synthase kinase 3). The ^33P-labeled peptide substrate was captured by streptavidin-coated Flash plates.
Active recombinant Akt1 was expressed in Sf9 insect cells and purified as described by Kumar et al., Biochim. Biophys. Acta. Jun. 15, 2001, 1526(3), 257-268. Biotinylated peptide of the sequence Bio-ahx-RPRAASF was purchased from Syn Pep (Dublin, Calif., USA).
Human Akt1 cDNA was amplified from a marathon-ready human lung cDNA library (Clonetech) using nested oligo primers as described below. The first round of amplification was carried out using the following primers; Akt1F1 ([…]) (SEQ ID NO: 1 and Akt1R1 (TCCATC […]) (SEQ ID NO: 2) and for the second round amplification, the primers of the following sequence were used; Akt1F2 (GGATCCTCGG […]) (SEQ ID NO: 3) and AKT1R2 (GGTACCATCGTC […]) (SEQ ID NO: 4). The PCR product was subcloned into pCRScript plasmid as a BamHI/KpnI fragment and the sequence of the cDNA was confirmed by DNA sequencing. This plasmid was used as a template for reamplification of Akt1 using appropriate primers for subcloning into pBlueBaHis2B into BamH1/EcoRI sites to generate an in frame fusion to (His)6 tag and an anti-Xpress antibody epitope tag at the N-terminus. This construct was sequenced to verify the junction sequences and used for generating a recombinant baculovirus. Growth of the recombinant virus, amplification and determination of viral titer were carried out according to the instructions from the manufacturer (InVitrogen, Calif.).
Viral stocks were used to infect large scale Sf9 cells at a multiplicity of infection (MOI) of 2.5. Cells were maintained at 27° C. for 60 h and okadaic acid was added to the cultures to a concentration of 50 nM. Cells were harvested 4 h hours later by centrifugation at 1200 rpm for 30 min followed by freezing at −80° C. until further use. All purification steps were carried out at 4° C. Whole cell pellets were suspended in buffer A (20 mM sodium phosphate buffer pH 7.8, 500 mM NaCl, 1 mM sodium vanadate, 5 mM sodium fluoride, 40 mM β-glycerophosphate, 10 mM imidazole and protease inhibitor cocktail) and lysed using a microfluidizer. The cell extract was centrifuged at 16,000×g for 10 min to remove the debris and directly loaded onto Ni-NTA Superflow resin using a FPLC pump operated at 1 ml/min. The column was washed once with buffer A, once with wash buffer B (20 mM sodium phosphate pH 6.0, 1 mM sodium vanadate, 5 mM sodium fluoride and protease cocktail) and once with wash buffer B containing 0.05% Tween-20 followed by washing with buffer A until OD260 returned to basal level. Proteins were eluted with buffer A containing 200 mM imidazole. Fractions were analyzed by electrophoresis on 10% denaturing polyacrylamide gels and fractions containing 85% pure protein band at 60 KDa were pooled and dialyzed against buffer C (20 mM Tris-HCl pH 7.5, 0.5 mM EDTA, 2 mM DTT, 145 mM NaCl, 0.1 mM sodium vanadate, 5 mM sodium fluoride, 10 mM β-glycerophosphate and 20% glycerol). Purified protein was stored as aliquots at −80° C. Protein concentrations were determined using BCA protein assay reagent A (Catalog #23228). To examine the identity of the proteins, 2 μg of purified protein was electrophoresed on SDS-polyacrylamide gels and stained with coomassie blue dye or transferred to nitrocellulose membrane and probed with anti-Akt and anti-phospho-specific Akt antibodies using enhanced chemiluminescence (ECL) reagent according to the protocol described by the manufacturer (Amersham).
The kinase assay was performed in 96 well plates at room temperature. Assay solutions and plates were preincubated at room temperature for 5 min. […]

T1 sequence (P31749 whole entry): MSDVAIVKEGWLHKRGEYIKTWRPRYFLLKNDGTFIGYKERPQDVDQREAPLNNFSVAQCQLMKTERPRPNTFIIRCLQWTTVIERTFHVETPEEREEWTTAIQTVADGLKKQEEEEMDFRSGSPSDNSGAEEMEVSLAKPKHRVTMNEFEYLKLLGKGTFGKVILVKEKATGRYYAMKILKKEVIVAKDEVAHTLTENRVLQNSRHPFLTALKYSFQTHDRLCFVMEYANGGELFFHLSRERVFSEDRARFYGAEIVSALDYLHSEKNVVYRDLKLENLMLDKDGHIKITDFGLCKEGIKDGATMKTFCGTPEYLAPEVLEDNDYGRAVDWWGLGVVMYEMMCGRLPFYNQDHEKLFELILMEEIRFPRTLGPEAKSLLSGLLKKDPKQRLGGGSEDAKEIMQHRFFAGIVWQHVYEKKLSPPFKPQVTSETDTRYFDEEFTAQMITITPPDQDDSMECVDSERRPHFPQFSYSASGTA

Row | Compound | pIC50
1 | Cc1n[nH]c2ccc(-c3cnc(NCc4ccccc4)c(NCCN)n3)cc12 | 7.10
2 | Cc1n[nH]c2ccc(-c3cnc(N)c(NCCN)n3)cc12 | 7.13
3 | Cc1n[nH]c2ccc(-c3cncc(N4CCN[C@@H](Cc5ccccc5)C4)n3)cc12 [Example 2, 2-[(S)-3-benzylpiperazinyl]-6-[3-methyl-1H-indazol-5-yl]pyrazine] | 9.00
4 | Cc1n[nH]c2ccc(-c3cnc(NCc4ccccc4)c(N4CCNCC4)n3)cc12 [drawing 101] | 7.34
5 | Cc1n[nH]c2ccc(-c3cnc(NCc4cccc(F)c4)c(N4CCNCC4)n3)cc12 [drawing 103] | 7.36
6 | Cc1n[nH]c2ccc(-c3cnc(NCc4ccccc4)c(N4CCN[C@@H](Cc5ccccc5)C4)n3)cc12 [drawing 104] | 7.12
7 | Cc1n[nH]c2ccc(-c3cnc(NCc4ccccc4Cl)c(N4CCNCC4)n3)cc12 [drawing 105] | 6.89
8 | Cc1n[nH]c2ccc(-c3cnc(N)c(N4CCN[C@@H](Cc5ccccc5)C4)n3)cc12 [drawing 106] | 7.26
9 | Cc1ccccc1CNc1ncc(-c2ccc3[nH]nc(C)c3c2)nc1N1CCNCC1 [drawing 108] | 6.85
10 | COc1cccc(CNc2ncc(-c3ccc4[nH]nc(C)c4c3)nc2N2CCNCC2)c1 [drawing 109] | 6.83

same assay, conditions: active recombinant Akt1, 2 μM cold ATP, 2 hr, room temperature

Row | Compound | pIC50
11 | Cc1n[nH]c2ccc(-c3cnc(N)c(N4CCN[C@@H](Cc5ccccc5)C4)n3)cc12 [Example 1, 2-amino-3-[(S)-3-benzylpiperazinyl]-5-(3-methyl-1H-indazol-5-yl)pyrazine] | 6.62 to 9.01
12 | Cc1n[nH]c2ccc(-c3cncc(N4CCN[C@@H](Cc5ccccc5)C4)n3)cc12 [Example 2, 2-[(S)-3-benzylpiperazinyl]-6-[3-methyl-1H-indazol-5-yl]pyrazine] | 6.62 to 9.01 and 7.34 to 9.01 and 9.01
13 | Cc1n[nH]c2ccc(-c3cnc(NCc4ccccc4)c(N4CCN[C@@H](Cc5ccccc5)C4)n3)cc12 [Example 5] | 6.62 to 9.01
14 | Cc1n[nH]c2ccc(-c3cnc(N)c(N4CCN[C@H](c5ccccc5)C4)n3)cc12 [Example 8] | 6.62 to 9.01
15 | Cc1n[nH]c2ccc(-c3cnc(N)c(N4CCNCC4)n3)cc12 [Example 12] | 6.62 to 9.01
16 | Cc1n[nH]c2ccc(-c3cnc(NCc4ccccc4)c(N4CCNCC4)n3)cc12 [Example 18] | 6.62 to 9.01 and 7.34 to 9.01
17 | Cc1n[nH]c2ccc(-c3cnc(N(C)Cc4ccccc4)c(N4CCNCC4)n3)cc12 [Example 27] | 6.62 to 9.01
18 | Cc1n[nH]c2ccc(-c3cnc(NCc4ccc(Cl)cc4)c(N4CCNCC4)n3)cc12 [Example 29] | 6.62 to 9.01
19 | Cc1n[nH]c2ccc(-c3cnc(NCc4cccc(Cl)c4)c(N4CCNCC4)n3)cc12 [Example 30] | 6.62 to 9.01
20 | Cc1n[nH]c2ccc(-c3cnc(NCc4ccccc4Cl)c(N4CCNCC4)n3)cc12 [Example 31] | 6.62 to 9.01
21 | COc1cccc(CNc2ncc(-c3ccc4[nH]nc(C)c4c3)nc2N2CCNCC2)c1 [Example 34] | 6.62 to 9.01
22 | COc1ccccc1CNc1ncc(-c2ccc3[nH]nc(C)c3c2)nc1N1CCNCC1 [Example 35] | 6.62 to 9.01
23 | Cc1ccccc1CNc1ncc(-c2ccc3[nH]nc(C)c3c2)nc1N1CCNCC1 [Example 38] | 6.62 to 9.01
24 | Cc1n[nH]c2ccc(-c3cnc(NCc4ccccc4F)c(N4CCNCC4)n3)cc12 [Example 41] | 6.62 to 9.01
25 | Cc1n[nH]c2ccc(-c3cnc(NCc4cccc(F)c4)c(N4CCNCC4)n3)cc12 [Example 42] | 6.62 to 9.01 and 7.34 to 9.01
26 | Cc1n[nH]c2ccc(-c3cnc(NCc4ccc(F)cc4)c(N4CCNCC4)n3)cc12 [Example 43] | 6.62 to 9.01
27 | Cc1n[nH]c2ccc(-c3cnc(NCc4c(F)cccc4Cl)c(N4CCNCC4)n3)cc12 [Example 50] | 6.62 to 9.01
